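Tested at 5 concentrations; 48 h exposure; 96-well plates; endpoints linearly interpolated, else capped at highest concentration. TGI marks complete inhibition of growth.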 Where only a bound is given, the exact number is not on record here.

Assay in all cases: NCI anticancer screen, dose series, 48 h
For assay [1], the system named is MDA-MB-435.
Assay [2] relates to NCI-H460 lung.
Assay [3] deals with OVCAR-5 ovarian.
In assay [4] the test system is DU-145 prostate.
Assay [5] deals with OVCAR-4 ovarian.
The subject of assay [6] is NCI-H23 lung.
The test system of assay [7] is LOX IMVI melanoma.
Assay [8] has as its system SNB-19 CNS.
Assay [9] concerns HCC-2998 colon.
Assay [10] concerns SN12C renal.
For assay [11], the system named is HCT-15 colon.
In assay [12] the test system is HL-60(TB) leukemia.
The subject of assay [13] is SK-MEL-2 melanoma.

Regarding `CC1C(c2ccccc2)NC(c2ccccc2)CC1(N)C#N` (stereo not drawn), the TGI in [1], in assay [2], in [3], in assay [4], in [5] and in assay [6] was greater than 100 µM in each case. Moreover, the TGI in assay [7], in [8], in assay [9], in [10], in assay [11] and in [12] was greater than 100 µM each time.

Turning to `CNC(=O)C1OC(n2cnc3c(NCc4cccc(I)c4)nc(Cl)nc32)C(O)C1O` (stereo not drawn), the TGI in assay [1] was determined as 27 µM; in assay [3] it was 27 µM; in assay [13], 27.8 µM; in [4], 50.4 µM; in [6], 25.5 µM; in assay [7], 27.2 µM. Further, the TGI in [8] is 24.9 µM; in assay [10], 41 µM; in assay [11] it was 20.4 µM; in [12], greater than 100 µM.

With `N#Cc1c(N2CCCC2)nsc1Nc1ccccc1`, the TGI in [2], in [3], in assay [13], in assay [4], in assay [5] and in assay [6] was greater than 100 µM throughout. Further, the TGI in [7], in assay [8], in assay [9], in assay [10], in assay [11] and in [12] was greater than 100 µM in each case.

For `Cc1cc(OCC(O)CO)ccc1Cl` (stereo not drawn), the TGI in [2], in [3], in [13], in [5], in assay [6] and in assay [7] was greater than 100 µM each time. Also, the TGI in [8], in assay [9], in [10], in assay [11] and in assay [12] was greater than 100 µM in each case.

For the molecule `CCN(CC)CCNc1ccc([N+](=O)[O-])c2nc3ccc(OC)cc3c(N)c12`, the TGI in assay [1] was found to be 2.98 µM; in assay [2] it was 2.67 µM; in assay [3], 3.15 µM; in [13], 3.22 µM; in assay [4] it was 3.07 µM; in assay [5], 1.91 µM. The TGI in assay [6] was found to be 3.53 µM; in assay [7], 0.344 µM; in assay [8], 3.29 µM; in [10], 2.83 µM; in assay [11], 2.68 µM; in [12], 0.246 µM.

Consider `NS(=O)(=O)c1ccc(NCc2nc3ccccc3[nH]2)cc1`, for which the TGI in assay [1], in assay [2], in assay [3], in assay [13], in [4] and in assay [5] was greater than 100 µM in each case. Moreover, the TGI in [6], in assay [7], in [8], in assay [10] and in [11] was greater than 100 µM throughout.

As to `O=c1onc(Nc2ccccc2)n1-c1ccccc1`, the TGI in assay [2], in assay [3], in assay [13], in assay [5], in assay [6] and in [7] was greater than 100 µM throughout. For the same molecule, the TGI in [8], in assay [9], in [10], in assay [11] and in assay [12] was greater than 100 µM each time.

For `CSc1nc(-c2ccccc2)nc(=[N+]2CCOCC2)s1`, the TGI in assay [2], in assay [3], in [13], in assay [5], in assay [6] and in assay [7] was greater than 100 µM throughout. Moreover, the TGI in assay [8], in assay [9], in assay [10], in [11] and in assay [12] was greater than 100 µM each time.

In the case of `Cc1ccc2c(=O)cc(-c3cccc(F)c3)[nH]c2n1`, the TGI is 0.0224 µM in assay [1]; greater than 100 µM in assay [3]; 1.23 µM in assay [4]; greater than 100 µM in assay [5]; 0.739 µM in assay [6]; greater than 100 µM in assay [7]. In addition, the results for the TGI in [9], in [10] and in assay [12] were 0.401 µM, greater than 100 µM and 0.0621 µM, respectively.

Take `Cc1cc(S(=O)(=O)Nc2n[nH]c(Nc3ccccc3)n2)c(SSc2cc(Cl)c(C)cc2S(=O)(=O)Nc2n[nH]c(Nc3ccccc3)n2)cc1Cl`: the TGI in assay [1], in [2], in assay [3], in assay [4], in [5] and in [6] was greater than 100 µM each time. For the same molecule, the TGI in assay [7] is greater than 100 µM; in assay [8] it was greater than 100 µM; in assay [10] it was greater than 100 µM; in assay [11] it was greater than 100 µM; in [12] it was 61.1 µM.

As to `Nc1ncc2c(n1)-c1ccccc1OC2`, the TGI in assay [2] was greater than 100 µM; in assay [3], greater than 100 µM; in assay [13] it was greater than 100 µM; in assay [5], greater than 31.6 µM; in assay [6], greater than 100 µM; in assay [7] it was greater than 100 µM. In addition, the TGI in assay [8], in assay [9], in assay [10], in assay [11] and in assay [12] was greater than 100 µM throughout.

Take `COc1ccc(C2NC(N)=C(C#N)C3=C2C(C)CCC3)cc1OC` (stereo not drawn): the TGI in assay [1], in assay [3], in assay [13], in assay [4], in [6] and in [7] was greater than 100 µM throughout. For the same molecule, the TGI in [8], in [10], in assay [11] and in assay [12] was greater than 100 µM in each case.

Turning to `Cc1ccc(S(=O)(=O)NC(=O)NC(CC(=O)O)C(=O)O)cc1` (stereo not drawn), the TGI in assay [2], in assay [3], in assay [13], in assay [4], in assay [5] and in assay [6] was greater than 100 µM throughout. In addition, the TGI in assay [7], in assay [8], in assay [10], in [11] and in assay [12] was greater than 100 µM throughout.

Consider `COc1ccc(C2=NN(c3nsc4ccccc34)C(=O)CC2)cc1`, for which the TGI in [2], in assay [3], in [13], in [5], in assay [6] and in [7] was greater than 100 µM throughout. In addition, the TGI in [8], in assay [9], in [10], in assay [11] and in [12] was greater than 100 µM throughout.

Turning to `CCCCCCCCCCOc1ccc(N=Nc2nnc(-c3ccc(OCCCCC)cc3)s2)cc1`, the TGI in assay [1], in assay [2], in assay [3], in [4], in assay [5] and in assay [6] was greater than 100 µM throughout. Also, the TGI in assay [7], in assay [8], in assay [9], in assay [10] and in assay [11] was greater than 100 µM each time.

`Cc1ccc(C(=O)N/N=C(\N=Nc2ccccc2C(=O)O)c2ccc(N(C)C)cc2)cc1`: the TGI in assay [1], in [2], in [3], in [13], in assay [5] and in assay [6] was greater than 100 µM in each case. For the same molecule, the TGI in assay [7], in [8], in [9], in [10], in [11] and in assay [12] was greater than 100 µM in each case.

Turning to `CC(C)N1[C@@H]2CCCC[C@H]2N(C(C)C)[P+]1=O`, the TGI in assay [1], in assay [2], in assay [3], in assay [4], in [6] and in assay [9] was greater than 100 µM throughout. The TGI in assay [10] and in assay [11] was greater than 100 µM throughout.

On to `O=[N+]([O-])c1ccc(Nc2cccc3c2[nH]c2c(-c4ccccc4)nccc23)c([N+](=O)[O-])c1`, for which the TGI in assay [2], in [3], in assay [13], in [5], in [6] and in assay [7] was greater than 100 µM each time. Moreover, the TGI in [8], in assay [9], in assay [10], in [11] and in [12] was greater than 100 µM each time.

Turning to `Cc1ccc(S(=O)(=O)N/N=C\c2c3ccccc3[n+](C)c3ccccc23)cc1`, the TGI was 50.3 µM in assay [2]; greater than 100 µM in assay [3]; greater than 100 µM in assay [13]; greater than 100 µM in assay [5]; greater than 100 µM in assay [6]; 52.9 µM in assay [7]. The TGI in [8] was 75.1 µM; in assay [9], greater than 100 µM; in assay [10] it was greater than 100 µM; in [11], 97.4 µM; in [12], 59.6 µM.

With `CC(=O)c1c(O)cc(O)c(-c2c(C)cc(O)c3c2C(=O)c2cccc(O)c2C3=O)c1O`, the TGI in [1] worked out at 34.5 µM; in assay [2] it was 31.7 µM; in [3] it was 41.5 µM; in assay [13], 34.2 µM; in assay [4], 30.2 µM; in assay [5] it was 28.5 µM. Besides, the TGI in assay [7] was found to be 27.4 µM; in assay [8], 39.1 µM; in assay [10], 36 µM; in assay [11], 28.6 µM; in [12], 79.7 µM.

Regarding `O=[N+]([O-])c1ccc2nc(-c3ccc(Cl)cc3)[nH]c2c1`, the TGI in assay [1] is 46.8 µM; in assay [2], 45.4 µM; in assay [4], 60.5 µM; in assay [5], greater than 100 µM; in assay [6], greater than 100 µM; in assay [7] it was 35.3 µM. In addition, the results for the TGI in [8], in assay [10] and in assay [11] were 80.1 µM, greater than 100 µM and 29.1 µM, respectively.

Turning to `O=S(=O)(O)c1cc(N=[N+]([O-])c2ccc(N=Nc3ccccc3)cc2S(=O)(=O)O)ccc1/C=C/c1ccc(N=[N+]([O-])c2ccc(N=Nc3ccccc3)cc2S(=O)(=O)O)cc1S(=O)(=O)O`, the TGI in [2], in [3], in assay [13], in assay [5], in assay [6] and in assay [7] was greater than 100 µM in each case. Besides, the TGI in assay [8], in [9], in assay [10], in assay [11] and in assay [12] was greater than 100 µM in each case.

As to `CCOC(=O)C1CCCN1C(=O)c1ccccc1Cl` (stereo not drawn), the TGI in assay [1], in [2], in assay [3], in [4], in assay [6] and in assay [7] was greater than 100 µM in each case. The TGI in [8], in assay [9], in assay [10], in [11] and in assay [12] was greater than 100 µM in each case.

As for `COC(=N)CCCl`, the TGI in [2], in assay [3], in assay [4], in assay [5], in assay [6] and in assay [8] was greater than 100 µM throughout. The TGI in assay [9], in assay [10], in [11] and in assay [12] was greater than 100 µM each time.

For the molecule `Cc1ccc([N+]2=NC(c3ccccc3)=NN(c3ccccc3)C2)cc1`, the TGI in assay [2], in [3], in assay [5], in assay [6], in assay [7] and in assay [8] was greater than 100 µM in each case. Besides, the TGI in assay [9], in [10], in assay [11] and in assay [12] was greater than 100 µM each time.

(Values after PubChem BioAssay (NCI).)
